{"source": "patent US4460576A", "about": "“Peptide and hormone agent containing the same as effective ingredient” (Kaken Pharmaceutical Co., Ltd., priority 1982, dated 1984)", "key": {"Male Wistar rats": {"test_system": "Male Wistar rats", "assay": "GH-releasing activity of [Gln^16 ]--GH--RH in vivo, plasma GH by RIA (Pharmacological Test Example 3)", "set-up": "species or system rat", "settings": "for GH Concentration, individual rats / GH Concentration Mean ± S.E.: plasma; for GH Concentration, individual rats: rats G, H, I, J, K, L in order; for GH Concentration Mean ± S.E.: procedure of Test Example 2, six rats G to L", "description": "Male Wistar rats of 10 weeks old were used. The rats were anesthetized with pentobarbital administered intraperitoneally (i.p.) in a dosage of 50 mg./kg. and fixed. Silastic tube (Dow Corning 0.020 in I.D., by 0.037 in O.D.) cannula of 3.5 cm was inserted to the heart side of right jugular vein in the rat. In the rat with chronic vein-cannula in plant, the other side of the cannula was taken out by 3 cm. from backside of neck and fixed on outer layer of skin.\nFrom the cannula was injected 0.5 ml. of 20 units/ml. heparin, and then the cannula was pluged with a stainless-steel wire stopper. The rats were subjected to injecting of GH--RH and blood-gathering under non-anesthetic condition on the next day. Chlorpromazine hydrochloride was administered i.p. before 4 hrs. of injection in a dosage of 2 mg./kg. Four rats (D to G) received injection from the cannula of 440 μg./kg. of GH--RH obtained from salmon in Example 1. Three rats (A to C) received physiological saline as a control.\nFrom each rat, 0.5 ml. of blood was gathered before 15 minutes of injection and after 15, 30, 60, 120 and 180 minutes of injection.\nThe gathered blood was centrifuged at 2,000×g for 10 minutes. For measuring GH-releasing activity, the supernatant (plasma) was assayed by means of a radio immuno assay (hereinafter referred to as \"RIA\") according to a double antibody method (see C. A. Birge et al Endocrinology 81, p.195 (1967)). The RIA of rat GH was carried out by employing NIH kit. The results are shown in Table 4 and FIG. 8 in which symbols A to G described in Table 4 correspond to those described in FIG. 8.\nThe procedure of Pharmacological Test Example 2 was repeated except that six rats were used, respectively, as to the group receiving [Gln^16 ]--GH--RH and as to the group receiving physiological saline and the blood-gathering was carried out before 15 minutes of injection and after 15, 30, 60, 120, 180, 240 and 300 minutes, respectively, of injection."}, "[1]": {"test_system": "anterior pituitaries obtained from male Wistar Rats", "assay": "GH release from pieces of rat anterior pituitaries on a column, radioimmunoassay (Pharmacological Test Example 1)", "type": "cell-based", "description": "Small pieces of anterior pituitaries obtained from male Wistar Rats were placed on top of a column being an injection cylinder having one […] diameter packed with 0.3 to 0.5 ml. of Sephadex G 25 equilibrated with a Krebs-Ringer buffer solution containing 0.1% calf serum at a flow rate of 0.5 ml./min. On the column were chromatographed 1 ml. of a control solution (a Klebs-Ringer buffer solution), 1 ml. of 2 μg./ml. solution of TRH and 1 ml. of 2 μg./ml. solution of the GH--RH obtained in Example 1 in that order. The column effluent was collected in 1 ml.-fractions and each fraction was analyzed by means of a radioimmunoassay with an anti-rat GH antibody (NIH standard) to determine an amount of the released rat GH in the assay."}, "[2]": {"settings": "R. Guillemin et al, Science, 218, p.585 (1982); cited from earlier work"}}, "note": "Where “and” joins values, the source holds several entries; their conditions need not be identical. Equal entries are not always repeated. Positions of bridges follow the written chain, without caps; N, C: chain ends. Residues, ends and D or L forms follow the SMILES beside them. No end group written: not given here.", "data": [{"compound": "CSCC[C@@H]1NC(=O)[C@@H](NC(=O)[C@H](CCCNC(=N)N)NC(=O)[C@H](CCSC)NC(=O)[C@@H](NC(=O)[C@@H](N)CC(=O)O)[C@@H](C)O)CSSC[C@@H](C(=O)N[C@@H](Cc2c[nH]c3ccccc23)C(=O)N[C@@H](CCC(N)=O)C(=O)N[C@H](C(=O)O)C(C)C)NC(=O)[C@@H]2CCCN2C(=O)[C@H](CCCNC(=N)N)NC(=O)[C@H](Cc2ccc(O)cc2)NC(=O)[C@H](C(C)C)NC(=O)[C@H](CCCNC(=N)N)NC(=O)CNC(=O)[C@H](C(C)C)NC1=O", "note": "[[Gln^16]--GH--RH] (H-DTMRCMVGRVYRPCWQV-OH; disulfide 5-14)", "values": [{"measurement": "increase of GH concentration in plasma compared with the control group", "setting": "Male Wistar rats; FIG. 9", "value": "evident increase of GH concentration in plasma was observed from 30 to 60 minutes after injection"}, {"measurement": "GH Concentration, individual rats", "setting": "Male Wistar rats; 15 min after injection", "value": "10.04 μIU/ml. and 9.76 μIU/ml. and 7.20 μIU/ml. and 11.52 μIU/ml. and 7.64 μIU/ml. and 8.08 μIU/ml."}, {"measurement": "GH Concentration, individual rats", "setting": "Male Wistar rats; 30 min after injection", "value": "9.80 μIU/ml. and 7.72 μIU/ml. and 34.84 μIU/ml. and 8.36 μIU/ml. and 30.68 μIU/ml. and 57.80 μIU/ml."}, {"measurement": "GH Concentration, individual rats", "setting": "Male Wistar rats; 60 min after injection", "value": "56.52 μIU/ml. and 47.00 μIU/ml. and 63.40 μIU/ml. and 115.36 μIU/ml. and 21.48 μIU/ml. and 44.88 μIU/ml."}, {"measurement": "GH Concentration, individual rats", "setting": "Male Wistar rats; 120 min after injection", "value": "22.48 μIU/ml. and 29.32 μIU/ml. and 23.56 μIU/ml. and 18.08 μIU/ml. and 13.24 μIU/ml. and 11.52 μIU/ml."}, {"measurement": "GH Concentration, individual rats", "setting": "Male Wistar rats; 180 min after injection", "value": "10.08 μIU/ml. and 9.72 μIU/ml. and 10.56 μIU/ml. and 10.24 μIU/ml. and 9.48 μIU/ml. and 8.20 μIU/ml."}, {"measurement": "GH Concentration, individual rats", "setting": "Male Wistar rats; 240 min after injection", "value": "25.84 μIU/ml. and 8.36 μIU/ml. and 30.00 μIU/ml. and 36.48 μIU/ml. and 7.80 μIU/ml. and 11.52 μIU/ml."}, {"measurement": "GH Concentration, individual rats", "setting": "Male Wistar rats; 300 min after injection", "value": "12.36 μIU/ml. and 12.08 μIU/ml. and 10.32 μIU/ml. and 16.64 μIU/ml. and 12.96 μIU/ml. and 10.76 μIU/ml."}, {"measurement": "GH Concentration, individual rats", "setting": "Male Wistar rats; -15 min (before injection)", "value": "10.52 μIU/ml. and 9.36 μIU/ml. and 8.56 μIU/ml. and 6.32 μIU/ml. and 7.20 μIU/ml. and 8.96 μIU/ml."}, {"measurement": "GH Concentration Mean ± S.E.", "setting": "Male Wistar rats; 15 min after injection", "value": "9.04 ± 0.68", "unit": "μIU/ml."}, {"measurement": "GH Concentration Mean ± S.E.", "setting": "Male Wistar rats; 30 min after injection", "value": "24.87 ± 8.19", "unit": "μIU/ml."}, {"measurement": "GH Concentration Mean ± S.E.", "setting": "Male Wistar rats; 60 min after injection", "value": "58.11 ± 12.84", "unit": "μIU/ml."}, {"measurement": "GH Concentration Mean ± S.E.", "setting": "Male Wistar rats; 120 min after injection", "value": "19.70 ± 2.75", "unit": "μIU/ml."}, {"measurement": "GH Concentration Mean ± S.E.", "setting": "Male Wistar rats; 180 min after injection", "value": "9.71 ± 0.34", "unit": "μIU/ml."}, {"measurement": "GH Concentration Mean ± S.E.", "setting": "Male Wistar rats; 240 min after injection", "value": "20.00 ± 5.04", "unit": "μIU/ml."}, {"measurement": "GH Concentration Mean ± S.E.", "setting": "Male Wistar rats; 300 min after injection", "value": "12.52 ± 0.92", "unit": "μIU/ml."}, {"measurement": "GH Concentration Mean ± S.E.", "setting": "Male Wistar rats; -15 min (before injection)", "value": "8.49 ± 0.62", "unit": "μIU/ml."}, {"measurement": "GH-releasing effect", "setting": "Male Wistar rats; rats in vivo", "value": "has a GH-releasing effect"}]}, {"compound": "thyrotropic releasing hormone [TRH]", "values": [{"measurement": "Amount of Released Rat GH", "setting": "[1]; 1 ml. of 2 μg./ml. solution on the column, RIA with anti-rat GH antibody", "value": 300, "unit": "ng/mL"}, {"measurement": "releasing manner of GH", "setting": "[1]; elution profile of released GH", "value": "broad"}]}, {"compound": "hpGRF: GH-releasing factor isolated from human pancreatic cancer (YADAIFTNSYRKVLGQLSARKLLQDIMSRQQGESNQERGARARL; ends and bridges not checked; UniProt P01286 32-75, looked up)", "values": [{"measurement": "time after injection at which increase of GH is shown", "setting": "[2]", "value": 5, "unit": "min"}]}]}
